From PubChem BioAssay (NCI) come the findings set out here.

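Following 48 hours of exposure in 96-well plates, responses at five concentrations were used to interpolate endpoints linearly. The concentration for full growth arrest is given as TGI.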

For the first test, the system named is NCI/ADR-RES ovarian. Description: NCI anticancer screen, dose series, 48 h.
`Cc1ccc2c(c1C)CC1(Cc3c(C)ccc(C)c3C1=O)C2=O` (stereo unspecified) came in with a TGI of more than 100 µM.

The molecule `O=CN1CCN(C(=O)c2ccco2)C1=S` returned a TGI of 75.3 µM.

`Cn1c2c(c3ccccc31)CCN1C(=O)C34CCCC3CC21S4` (stereo unspecified) gave a TGI of more than 100 µM.

The molecule `O=C1/C(=C/c2ccncc2)C(n2cccc2)c2c(Br)sc(Br)c21` (stereo unspecified) displayed a TGI of 51.2 µM.

The molecule `C=C1CC(COc2ccc3c(C)c(C)c(=O)oc3c2C)(c2ccccc2)OC1=O` (stereo unspecified) had a TGI of 8.24 µM.

`CC(=O)OCC(=O)O[C@@H]1[C@H]2[C@@H](OC(=O)c3ccccc3)[C@@H](C)C[C@]2(O)[C@H](OC(C)=O)[C@@]2(C)C[C@]1(OC(C)=O)C[C@H]1C(=O)C(C)(C)[C@@H](OC(C)=O)[C@@H]12` came in with a TGI of more than 25 µM.

Consider `O=C(Sc1c(-c2ccccc2)c(=O)n(-c2ccccc2)c(=S)n1-c1ccccc1)c1ccco1`, for which the TGI is more than 100 µM.

`Cn1nc2c(c1N)Cc1c(nn(C)c1N)-c1ccccc1-2`: the TGI was more than 100 µM.

The molecule `CCC(=O)Nc1ccc(NS(=O)(=O)c2ccc(Cl)cc2)cc1` had a TGI of more than 100 µM.

Consider `Cc1nnc2n1-c1ccccc1N(Cc1ccccc1)CC2`, for which the TGI is 69.2 µM.

`CC(C)(C)c1cc(/C=C2/NC(=O)NC2=O)cc(C(C)(C)C)c1O` returned a TGI of 34.1 µM.

Turning to `COc1cccc(N2C(=O)CS(=O)(=O)C2c2cccc(Oc3ccccc3)c2)c1` (stereo unspecified), the TGI is 77.3 µM.

`O=C(/C=C\Nc1ccccc1O)C(F)(F)F` gave a TGI of more than 100 µM.

`CC1(C)OC[C@@H](C[C@H](O)COCc2ccccc2)O1` returned a TGI of more than 100 µM.

`NC(N)=NS(=O)(=O)c1ccc(NC(=O)c2cccc3c(NNc4ccc(S(N)(=O)=O)cc4)c4ccccc4nc23)cc1` returned a TGI of more than 100 µM.

On to `CC(=O)N(C)c1ccc(Nc2ccnc3ccc4nn(C)nc4c23)cc1`, for which the TGI is more than 100 µM.

For `CN(C)CCNc1c([N+](=O)[O-])sc2ccc(Cl)cc12`, the TGI is more than 100 µM.

As for `COc1ccc2c(c1)-c1c(c3cc(OC)ccc3n1CCN(C)C)CC2`, the TGI stood at 32 µM.

In the case of `N#Cc1nc(CCCN2C(=O)c3ccccc3C2=O)oc1N`, the TGI was more than 100 µM.

`O=c1c(-c2ccccc2)c(SCCN2CCCCCC2)n(-c2ccccc2)c(=S)n1-c1ccccc1` came in with a TGI of more than 100 µM.

In a further test the test system is KM12 colon. Description: NCI anticancer screen, dose series, 48 h.
The molecule `Cc1ccc2c(c1C)CC1(Cc3c(C)ccc(C)c3C1=O)C2=O` (stereo unspecified) displayed a TGI of more than 100 µM.

`O=CN1CCN(C(=O)c2ccco2)C1=S`: the TGI is 20.1 µM.

The molecule `Cn1c2c(c3ccccc31)CCN1C(=O)C34CCCC3CC21S4` (stereo unspecified) had a TGI of more than 100 µM.

As for `O=C1/C(=C/c2ccncc2)C(n2cccc2)c2c(Br)sc(Br)c21` (stereo unspecified), the TGI was determined as 24.7 µM.

`C=C1CC(COc2ccc3c(C)c(C)c(=O)oc3c2C)(c2ccccc2)OC1=O` (stereo unspecified): the TGI worked out at 9.35 µM.

As to `CC(=O)OCC(=O)O[C@@H]1[C@H]2[C@@H](OC(=O)c3ccccc3)[C@@H](C)C[C@]2(O)[C@H](OC(C)=O)[C@@]2(C)C[C@]1(OC(C)=O)C[C@H]1C(=O)C(C)(C)[C@@H](OC(C)=O)[C@@H]12`, the TGI is more than 25 µM.

For `O=C(Sc1c(-c2ccccc2)c(=O)n(-c2ccccc2)c(=S)n1-c1ccccc1)c1ccco1`, the TGI was more than 100 µM.

For `Cn1nc2c(c1N)Cc1c(nn(C)c1N)-c1ccccc1-2`, the TGI is more than 100 µM.

In the case of `CCC(=O)Nc1ccc(NS(=O)(=O)c2ccc(Cl)cc2)cc1`, the TGI is more than 100 µM.

As to `Cc1nnc2n1-c1ccccc1N(Cc1ccccc1)CC2`, the TGI is more than 100 µM.

With `CC(C)(C)c1cc(/C=C2/NC(=O)NC2=O)cc(C(C)(C)C)c1O`, the TGI is 28.5 µM.

Consider `COc1cccc(N2C(=O)CS(=O)(=O)C2c2cccc(Oc3ccccc3)c2)c1` (stereo unspecified), for which the TGI was more than 100 µM.

The molecule `O=C(/C=C\Nc1ccccc1O)C(F)(F)F` showed a TGI of more than 100 µM.

Take `CC1(C)OC[C@@H](C[C@H](O)COCc2ccccc2)O1`: the TGI is more than 100 µM.

For the molecule `NC(N)=NS(=O)(=O)c1ccc(NC(=O)c2cccc3c(NNc4ccc(S(N)(=O)=O)cc4)c4ccccc4nc23)cc1`, the TGI is more than 100 µM.

As to `CC(=O)N(C)c1ccc(Nc2ccnc3ccc4nn(C)nc4c23)cc1`, the TGI stood at 76.2 µM.

For the molecule `CN(C)CCNc1c([N+](=O)[O-])sc2ccc(Cl)cc12`, the TGI is more than 100 µM.

Molecule `COc1ccc2c(c1)-c1c(c3cc(OC)ccc3n1CCN(C)C)CC2` gave a TGI of 36.7 µM.

In turn, `O=c1c(-c2ccccc2)c(SCCN2CCCCCC2)n(-c2ccccc2)c(=S)n1-c1ccccc1` gave a TGI of more than 100 µM.

Another test concerns MDA-MB-435. Description: NCI anticancer screen, dose series, 48 h.
For `Cc1ccc2c(c1C)CC1(Cc3c(C)ccc(C)c3C1=O)C2=O` (stereo unspecified), the TGI is more than 100 µM.

Consider `O=CN1CCN(C(=O)c2ccco2)C1=S`, for which the TGI was found to be 19.7 µM.

As to `Cn1c2c(c3ccccc31)CCN1C(=O)C34CCCC3CC21S4` (stereo unspecified), the TGI was more than 100 µM.

Turning to `O=C1/C(=C/c2ccncc2)C(n2cccc2)c2c(Br)sc(Br)c21` (stereo unspecified), the TGI stood at 4.66 µM.

For `C=C1CC(COc2ccc3c(C)c(C)c(=O)oc3c2C)(c2ccccc2)OC1=O` (stereo unspecified), the TGI stood at 7.96 µM.

Molecule `CC(=O)OCC(=O)O[C@@H]1[C@H]2[C@@H](OC(=O)c3ccccc3)[C@@H](C)C[C@]2(O)[C@H](OC(C)=O)[C@@]2(C)C[C@]1(OC(C)=O)C[C@H]1C(=O)C(C)(C)[C@@H](OC(C)=O)[C@@H]12` came in with a TGI of more than 25 µM.

As for `O=C(Sc1c(-c2ccccc2)c(=O)n(-c2ccccc2)c(=S)n1-c1ccccc1)c1ccco1`, the TGI is more than 100 µM.

For `Cn1nc2c(c1N)Cc1c(nn(C)c1N)-c1ccccc1-2`, the TGI was more than 100 µM.

The molecule `CCC(=O)Nc1ccc(NS(=O)(=O)c2ccc(Cl)cc2)cc1` had a TGI of more than 100 µM.

In the case of `Cc1nnc2n1-c1ccccc1N(Cc1ccccc1)CC2`, the TGI is more than 100 µM.

In turn, `CC(C)(C)c1cc(/C=C2/NC(=O)NC2=O)cc(C(C)(C)C)c1O` displayed a TGI of 33.4 µM.

In turn, `COc1cccc(N2C(=O)CS(=O)(=O)C2c2cccc(Oc3ccccc3)c2)c1` (stereo unspecified) gave a TGI of more than 100 µM.

Molecule `O=C(/C=C\Nc1ccccc1O)C(F)(F)F` yielded a TGI of more than 100 µM.

`CC1(C)OC[C@@H](C[C@H](O)COCc2ccccc2)O1` came in with a TGI of more than 100 µM.

Molecule `NC(N)=NS(=O)(=O)c1ccc(NC(=O)c2cccc3c(NNc4ccc(S(N)(=O)=O)cc4)c4ccccc4nc23)cc1` gave a TGI of more than 100 µM.

Molecule `CC(=O)N(C)c1ccc(Nc2ccnc3ccc4nn(C)nc4c23)cc1` showed a TGI of more than 100 µM.

`CN(C)CCNc1c([N+](=O)[O-])sc2ccc(Cl)cc12` registered a TGI of more than 100 µM.

In turn, `COc1ccc2c(c1)-c1c(c3cc(OC)ccc3n1CCN(C)C)CC2` came in with a TGI of 26.4 µM.

As to `N#Cc1nc(CCCN2C(=O)c3ccccc3C2=O)oc1N`, the TGI is more than 100 µM.

The molecule `O=c1c(-c2ccccc2)c(SCCN2CCCCCC2)n(-c2ccccc2)c(=S)n1-c1ccccc1` had a TGI of more than 100 µM.

For the next test, the system named is MALME-3M melanoma. As to the kind of experiment: NCI anticancer screen, dose series, 48 h.
`Cc1ccc2c(c1C)CC1(Cc3c(C)ccc(C)c3C1=O)C2=O` (stereo unspecified): the TGI is more than 100 µM.

The molecule `O=CN1CCN(C(=O)c2ccco2)C1=S` gave a TGI of 29.9 µM.

For the molecule `Cn1c2c(c3ccccc31)CCN1C(=O)C34CCCC3CC21S4` (stereo unspecified), the TGI is more than 100 µM.

For `O=C1/C(=C/c2ccncc2)C(n2cccc2)c2c(Br)sc(Br)c21` (stereo unspecified), the TGI was 10.9 µM.

Consider `C=C1CC(COc2ccc3c(C)c(C)c(=O)oc3c2C)(c2ccccc2)OC1=O` (stereo unspecified), for which the TGI was found to be 4.16 µM.

For `CC(=O)OCC(=O)O[C@@H]1[C@H]2[C@@H](OC(=O)c3ccccc3)[C@@H](C)C[C@]2(O)[C@H](OC(C)=O)[C@@]2(C)C[C@]1(OC(C)=O)C[C@H]1C(=O)C(C)(C)[C@@H](OC(C)=O)[C@@H]12`, the TGI is more than 25 µM.

For the molecule `O=C(Sc1c(-c2ccccc2)c(=O)n(-c2ccccc2)c(=S)n1-c1ccccc1)c1ccco1`, the TGI is more than 100 µM.

For the molecule `Cn1nc2c(c1N)Cc1c(nn(C)c1N)-c1ccccc1-2`, the TGI is more than 100 µM.

Turning to `CCC(=O)Nc1ccc(NS(=O)(=O)c2ccc(Cl)cc2)cc1`, the TGI was more than 100 µM.

Take `Cc1nnc2n1-c1ccccc1N(Cc1ccccc1)CC2`: the TGI was more than 100 µM.

`CC(C)(C)c1cc(/C=C2/NC(=O)NC2=O)cc(C(C)(C)C)c1O` returned a TGI of 34.6 µM.

Turning to `COc1cccc(N2C(=O)CS(=O)(=O)C2c2cccc(Oc3ccccc3)c2)c1` (stereo unspecified), the TGI is 69.8 µM.

Turning to `O=C(/C=C\Nc1ccccc1O)C(F)(F)F`, the TGI was 91.3 µM.

`CC1(C)OC[C@@H](C[C@H](O)COCc2ccccc2)O1` returned a TGI of more than 100 µM.

Regarding `NC(N)=NS(=O)(=O)c1ccc(NC(=O)c2cccc3c(NNc4ccc(S(N)(=O)=O)cc4)c4ccccc4nc23)cc1`, the TGI is 88.8 µM.

Regarding `CC(=O)N(C)c1ccc(Nc2ccnc3ccc4nn(C)nc4c23)cc1`, the TGI was 39.6 µM.

Consider `CN(C)CCNc1c([N+](=O)[O-])sc2ccc(Cl)cc12`, for which the TGI was more than 100 µM.

The molecule `COc1ccc2c(c1)-c1c(c3cc(OC)ccc3n1CCN(C)C)CC2` registered a TGI of 31 µM.

As to `N#Cc1nc(CCCN2C(=O)c3ccccc3C2=O)oc1N`, the TGI was more than 100 µM.

In turn, `O=c1c(-c2ccccc2)c(SCCN2CCCCCC2)n(-c2ccccc2)c(=S)n1-c1ccccc1` returned a TGI of 49.3 µM.

The subject of a further test is EKVX NSCLC. Description: NCI anticancer screen, dose series, 48 h.
`Cc1ccc2c(c1C)CC1(Cc3c(C)ccc(C)c3C1=O)C2=O` (stereo unspecified) showed a TGI of more than 100 µM.

For `O=CN1CCN(C(=O)c2ccco2)C1=S`, the TGI came out at 41.3 µM.

Molecule `Cn1c2c(c3ccccc31)CCN1C(=O)C34CCCC3CC21S4` (stereo unspecified) came in with a TGI of more than 100 µM.

Molecule `O=C1/C(=C/c2ccncc2)C(n2cccc2)c2c(Br)sc(Br)c21` (stereo unspecified) showed a TGI of 8.87 µM.

In turn, `C=C1CC(COc2ccc3c(C)c(C)c(=O)oc3c2C)(c2ccccc2)OC1=O` (stereo unspecified) returned a TGI of 20.8 µM.

`CC(=O)OCC(=O)O[C@@H]1[C@H]2[C@@H](OC(=O)c3ccccc3)[C@@H](C)C[C@]2(O)[C@H](OC(C)=O)[C@@]2(C)C[C@]1(OC(C)=O)C[C@H]1C(=O)C(C)(C)[C@@H](OC(C)=O)[C@@H]12` gave a TGI of more than 25 µM.

On to `O=C(Sc1c(-c2ccccc2)c(=O)n(-c2ccccc2)c(=S)n1-c1ccccc1)c1ccco1`, for which the TGI is more than 100 µM.

`Cn1nc2c(c1N)Cc1c(nn(C)c1N)-c1ccccc1-2` displayed a TGI of more than 100 µM.

With `CCC(=O)Nc1ccc(NS(=O)(=O)c2ccc(Cl)cc2)cc1`, the TGI was more than 100 µM.

Molecule `Cc1nnc2n1-c1ccccc1N(Cc1ccccc1)CC2` had a TGI of more than 100 µM.

In turn, `CC(C)(C)c1cc(/C=C2/NC(=O)NC2=O)cc(C(C)(C)C)c1O` came in with a TGI of 24 µM.

Molecule `COc1cccc(N2C(=O)CS(=O)(=O)C2c2cccc(Oc3ccccc3)c2)c1` (stereo unspecified) came in with a TGI of 59.3 µM.

Molecule `O=C(/C=C\Nc1ccccc1O)C(F)(F)F` had a TGI of more than 100 µM.

With `CC1(C)OC[C@@H](C[C@H](O)COCc2ccccc2)O1`, the TGI is more than 100 µM.

In the case of `NC(N)=NS(=O)(=O)c1ccc(NC(=O)c2cccc3c(NNc4ccc(S(N)(=O)=O)cc4)c4ccccc4nc23)cc1`, the TGI was more than 100 µM.

In the case of `CC(=O)N(C)c1ccc(Nc2ccnc3ccc4nn(C)nc4c23)cc1`, the TGI stood at 76.1 µM.

With `CN(C)CCNc1c([N+](=O)[O-])sc2ccc(Cl)cc12`, the TGI is more than 100 µM.
